EP0207202A1, “Anti-tumor platinum complexes” (Kidani, Yoshinori, priority 1985, dated 1987)
Like-named read-outs stand apart in the source and are kept apart here.

Tested on: Leukemia L-1210
Details: for number of mice cured after 30 days of the administration of the cells of Leukemia L-1210: parenthesized figure; for number of mice cured after 30 days of the administration of the cells of Leukemia L-1210 / T/C x 100: 6 mice per group; for T/C x 100: ratio of mean survival time test/control x 100
Text: Cells of Leukemia L-1210 were intraperitoneally administered to each of groups of mice(6 animals per group) at a rate of 10^5 cells per mouse, and while breeding the mice of control group, each of the compounds of the present invention was intraperitoneally administered to each mouse of the test groups after one, five and nine days of the administration of the cells, the mice of the test groups being bred similarly to those of control group. After observing the mortality of all the mice, the mean survival time period after the administration of the cells was obtained in each group including control group.

[1] = 25 mg/kg i.p. on days 1, 5 and 9
[2] = 25 mg/kg intraperitoneally on days 1, 5 and 9 after 10^5 L-1210 cells i.p.
[3] = 50 mg/kg i.p. on days 1, 5 and 9
[4] = 50 mg/kg intraperitoneally on days 1, 5 and 9 after 10^5 L-1210 cells i.p.
[5] = 100 mg/kg intraperitoneally on days 1, 5 and 9 after 10^5 L-1210 cells i.p.
[6] = 100 mg/kg i.p. on days 1, 5 and 9
[7] = 6.25 mg/kg intraperitoneally on days 1, 5 and 9 after 10^5 L-1210 cells i.p.
[8] = 12.5 mg/kg intraperitoneally on days 1, 5 and 9 after 10^5 L-1210 cells i.p.

Row | Substance | number of mice cured after 30 days of the administration of the cells of Leukemia L-1210 [1] | T/C x 100 [2] | number of mice cured after 30 days of the administration of the cells of Leukemia L-1210 [3] | T/C x 100 [4] | T/C x 100 [5] | rate of life prolongation (T/C x 100) (Table 2, dose not stated) [%] | number of mice cured after 30 days of the administration of the cells of Leukemia L-1210 [6] | number of mice cured after 30 days of the administration of the cells of Leukemia L-1210 (6.25 mg/kg i.p. on days 1, 5 and 9) | T/C x 100 [7] | T/C x 100 [8]
1 | Pt(NO3)(tetra-O-acetyl-α-D-glucuronato)(cis-dl-AMCHA) [Compound No. 6] | 1 | 281 | 3 | 402 | 120 | – | – | – | – | –
2 | Pt(NO3)(tetra-O-acetyl-β-D-glucuronato)(cis-dl-AMCHA)·3/2H2O [Compound No. 10] | 1 | 204 | – | 242 | 157 | 400 | – | – | – | –
3 | Pt(NO3)(tetra-O-acetyl-β-D-glucuronato)(trans-dl-AMCHA)·2H2O [Compound No. 9] | – | – | 1 | 253 | 206 | – | 2 | – | – | –
4 | Pt(penta-O-acetyl-D-gluconato)2(trans-dl-AMCHA)·H2O [Compound No. 15] | – | – | – | 267 | 103 | – | – | – | – | –
5 | Pt(tetra-O-acetyl-α-D-glucuronato)2(cis-dl-AMCHA) [Compound No. 4] | – | 145 | 1 | 198 | 277 | – | 2 | – | – | –
6 | PtCl(D-glucuronato)(cis-dl-AMCHA)·H2O [Compound No. 2] | – | 156 | – | – | – | – | – | 2 | 271 | 189
7 | PtCl(D-glucuronato)(trans-dl-AMCHA)·2H2O [Compound No. 1] | 2 | 293 | – | – | – | – | – | – | 144 | 118
